Data: patent EP0347459A1, “CEPHALOSPORIN COMPOUNDS OR THEIR SALTS, PROCESS FOR THEIR PREPARATION, AND PHARMACEUTICAL COMPOSITIONS” (TEIJIN LIMITED, priority 1987, dated 1988)
Converted amounts (≈) assume the structure as drawn.

What was measured:
Experiment in all cases: In vitro antibacterial activity, agar disc dilution method
Type in all cases: cell-based
P.aeruginosa PAD1 = conditions: Pseudomonas aeruginosa; P.aeruginosa PAD1; Mueller Hinton agar, 10^6/ml, 37°C for 16 hours; read-out: minimum growth inhibitory concentration (MIC)
Protocol: (§1) An in vitro antibacterial activity was measured by an agar disc dilution method.
(§2) Varied test bacteria were cultivated overnight in triptophane-soybroth. A Mueller Hinton agar containing the compound of this invention in varied concentrations was streaked with one platinum loopful of each of the bacteria (number of living cells 10^6/ml).

K.pneumoniae PCI602 = conditions: Klebsiella pneumoniae; K.pneumoniae PCI602; Mueller Hinton agar, 10^6/ml, 37°C for 16 hours; read-out: minimum growth inhibitory concentration (MIC)
Protocol: as §1, §2

S.marcescens IAM1184 = conditions: Serratia marcescens; S.marcescens IAM1184; Mueller Hinton agar, 10^6/ml, 37°C for 16 hours; read-out: minimum growth inhibitory concentration (MIC)
Protocol: as §1, §2

S.aureus 209p NIHJ JC1 = conditions: Staphylococcus aureus; S.aureus 209p NIHJ JC1; Mueller Hinton agar, 10^6/ml, 37°C for 16 hours; read-out: minimum growth inhibitory concentration (MIC)
Protocol: as §1, §2

P.morganii IFO3445 = conditions: Morganella morganii; P.morganii IFO3445; Mueller Hinton agar, 10^6/ml, 37°C for 16 hours; read-out: minimum growth inhibitory concentration (MIC)
Protocol: as §1, §2

P.vulgalis OX-11 = conditions: P.vulgalis OX-11; Mueller Hinton agar, 10^6/ml, 37°C for 16 hours; read-out: minimum growth inhibitory concentration (MIC)
Protocol: as §1, §2

S.typhi 901 = conditions: Salmonella enterica, 16 h, read-out: minimum growth inhibitory concentration (MIC)
Protocol: as §1, §2

M.luteus ATCC9341 = conditions: Micrococcus luteus; M.luteus ATCC9341; Mueller Hinton agar, 10^6/ml, 37°C for 16 hours; read-out: minimum growth inhibitory concentration (MIC)
Protocol: as §1, §2

P.aeruginosa NCTC1049 = conditions: Pseudomonas aeruginosa; P.aeruginosa NCTC1049; Mueller Hinton agar, 10^6/ml, 37°C for 16 hours; read-out: minimum growth inhibitory concentration (MIC)
Protocol: as §1, §2

S.pyogenes Cook = conditions: Streptococcus pyogenes; S.pyogenes Cook; Mueller Hinton agar, 10^6/ml, 37°C for 16 hours; read-out: minimum growth inhibitory concentration (MIC)
Protocol: as §1, §2

E.cloacae 963 = conditions: Enterobacter cloacae; E.cloacae 963; Mueller Hinton agar, 10^6/ml, 37°C for 16 hours; read-out: minimum growth inhibitory concentration (MIC)
Protocol: as §1, §2

S.enteritidis G14 = conditions: Salmonella enterica; S.enteritidis G14; Mueller Hinton agar, 10^6/ml, 37°C for 16 hours; read-out: minimum growth inhibitory concentration (MIC)
Protocol: as §1, §2

P.aeruginosa IFO3445 = conditions: Pseudomonas aeruginosa; P.aeruginosa IFO3445; Mueller Hinton agar, 10^6/ml, 37°C for 16 hours; read-out: minimum growth inhibitory concentration (MIC)
Protocol: as §1, §2

S. aureus Terajima = conditions: Staphylococcus aureus; S. aureus Terajima; Mueller Hinton agar, 10^6/ml, 37°C for 16 hours; read-out: minimum growth inhibitory concentration (MIC)
Protocol: as §1, §2

| Structure (SMILES) | MIC (P.aeruginosa PAD1) [µg/mL] | MIC (K.pneumoniae PCI602) [µg/mL] | MIC (S.marcescens IAM1184) [µg/mL] | MIC (S.aureus 209p NIHJ JC1) [µg/mL] | MIC (P.morganii IFO3445) [µg/mL] | MIC (P.vulgalis OX-11) [µg/mL] | MIC (S.typhi 901) [µg/mL] | MIC (M.luteus ATCC9341) [µg/mL] | MIC (P.aeruginosa NCTC1049) [µg/mL] | MIC (S.pyogenes Cook) [µg/mL] | MIC (E.cloacae 963) [µg/mL] | MIC (S.enteritidis G14) [µg/mL] | MIC (P.aeruginosa IFO3445) [µg/mL] | MIC (S. aureus Terajima) [µg/mL] |
| --- | --- | --- | --- | --- | --- | --- | --- | --- | --- | --- | --- | --- | --- | --- |
| Nc1nc(C(=NOC(C(=O)O)c2ccccc2)C(=O)NC2C(=O)N3C(C(=O)[O-])=C(C[n+]4ccc5cc(O)c(O)cc5c4)CSC23)ns1 [Compound IV, (6R,7R)-7-[(Z)-2-(5-amino-l,2,4-thiadiazol-3-yl-2-[(alpha-carboxybenzyl)oxyimino]acetamide-3-(6,7-dihydroxy-2-isoquinolinium)methyl-3-cephem-4-carboxylate] | 0.025 (≈ 0.0369 µM) | 0.005 (≈ 0.00738 µM) | 0.005 (≈ 0.00738 µM) | 3.2 (≈ 4.72 µM) | 0.005 (≈ 0.00738 µM) | 0.005 (≈ 0.00738 µM) | 0.005 (≈ 0.00738 µM) | 0.8 (≈ 1.18 µM) | 0.0125 (≈ 0.0184 µM) | 0.8 (≈ 1.18 µM) | 0.005 (≈ 0.00738 µM) | 0.005 (≈ 0.00738 µM) | 0.025 (≈ 0.0369 µM) | 3.2 (≈ 4.72 µM) |
| Nc1nc(C(=NOCC(=O)O)C(=O)NC2C(=O)N3C(C(=O)[O-])=C(C[n+]4ccc5cc(O)c(O)cc5c4)CSC23)ns1 [Compound II, (6R,7R)-7-[(Z)-5-amino-1,2,4-thiadiazol-3-yl)-2-(carboxymethoxyimino)acetamidel-3-(6,7-dihydroxy-2-isoquinolinium)methyl-3-cephem-4-carboxylate] | 0.025 (≈ 0.0416 µM) | 0.005 (≈ 0.00831 µM) | 0.005 (≈ 0.00831 µM) | 12.5 (≈ 20.8 µM) | 0.005 (≈ 0.00831 µM) | 0.005 (≈ 0.00831 µM) | 0.005 (≈ 0.00831 µM) | 1.6 (≈ 2.66 µM) | 0.0125 (≈ 0.0208 µM) | 0.2 (≈ 0.332 µM) | 0.005 (≈ 0.00831 µM) | 0.005 (≈ 0.00831 µM) | 0.05 (≈ 0.0831 µM) | 3.1 (≈ 5.15 µM) |
| CON=C(C(=O)NC1C(=O)N2C(C(=O)[O-])=C(C[n+]3ccc4cc(O)c(O)cc4c3)CSC12)c1csc(N)n1 [Comparative Compound A, (6R,7R)-7-[(Z)-2-(2-amino-l,3-thiazol-4-yl)-2-methoxyiminolacetamide-3-(6,7-dihydroxy-2-isoquinolinium)methyl-3-cephem-4-carboxylate, reference compound] | 50 (≈ 89.8 µM) | 0.005 (≈ 0.00898 µM) | 0.005 (≈ 0.00898 µM) | 0.4 (≈ 0.719 µM) | 0.1 (≈ 0.18 µM) | 0.005 (≈ 0.00898 µM) | 0.005 (≈ 0.00898 µM) | 0.4 (≈ 0.719 µM) | 0.2 (≈ 0.359 µM) | 0.2 (≈ 0.359 µM) | 0.025 (≈ 0.0449 µM) | 0.005 (≈ 0.00898 µM) | 50 (≈ 89.8 µM) | 0.4 (≈ 0.719 µM) |
